Experimental data published in article PMC9714921 (PLOS Pathogens, 2022).
pEC50: −log10 of the molar value. Several values for one entry are separate records, joined by “and”; a condition that tells them apart may be missing. Identical values can stand only once. Like-named read-outs stand apart in the source and are kept apart here.

Assays:
Gpu-ACR-16 = test: Voltage-clamp electrophysiology, N-AChR reconstituted in Xenopus laevis oocytes; assay type: cell-based, Gonglyonema pulchrum
Description: (§1) cRNA for oocyte injection was prepared with the mMESSAGE mMACHINE T7 kit following manufacturers protocol (Ambion, USA). Concentration was determined using a Nanodrop spectrophotometer. Desired subunit combinations with associated accessory proteins were mixed and diluted with nuclease-free water to a final concentration of 250 ng/uL for each construct.
(§2) Adult female X. laevis oocyte extraction was performed in accordance with the McGill University Animal Use Protocol 2015–7758 following standard protocol. Briefly, frog ovary lobes were placed in a Ca^2+-free OR2 solution (82 mM NaCl, 2 mM KCl, 1 mM MgCl2, 5 mM HEPES buffer, pH 7.3) and manually divided into clusters of <10 oocytes with thin tweezers followed by a 90-minute incubation in 10 mg/mL collagenase type II (Sigma-Aldrich, USA). Oocytes were washed in Ca^2+-free OR2 and placed ND96 solution (NaCl 96 mM, KCl 2 mM, CaCl2 1.8 mM, MgCl2 1 mM and HEPES 5 mM, pH 7.3) supplemented with sodium pyruvate 2.5 mM [86] and incubated at 18°C until cRNA injection. Oocytes were injected with 50 nL (12.5 ng of each injected gene) of the desired cRNA subunit and accessory protein combination mix with the NanojectII (Drummond Scientific, USA). Following injection, oocytes were incubated in ND96 buffer at 18°C until electrophysiology. All electrophysiology was conducted two days post-injection, except for the expression analysis assay in which oocytes were measured every day after injection for three consecutive days.
(§3) All drugs were dissolved in recording solution (NaCl 100 mM, KCl 2.5 mM, CaCl2 1 mM, HEPES 5 mM, pH 7.3) to a stock concentration of 10 mM and diluted to their final recording concentrations. Oxantel and bephenium were first dissolved in DMSO to ensure a final recording concentration contained less than 0.1% DMSO. For agonist profiling, all drugs were diluted to a concentration of 100 μM.
(§4) Oocytes were placed individually in an RC3Z chamber (Harvard Apparatus, USA) submerged in recording solution (NaCl 100 mM, KCl 2.5 mM, CaCl2 1 mM, HEPES 5 mM, pH 7.3). The RC3Z chamber was connected to a perfusion system containing recording solution and ligand solutions. Pulled glass capillaries (World Precision Instruments, USA) were filled with 3M KCl and the tips clipped and checked for appropriate resistance (between 0.5 and 5 MΩ). A 3M KCl agar bridge grounded the oocyte bath chamber. Measurements were made using an Axon Axoclamp 900A amplifier with Digidata1550M. […] Ligand solutions were applied to the oocytes with an approximate flow rate of 1.2 m/s and current responses measured. Oocytes were exposed to the ligand solution until a distinct current peak was observed followed by a wash with the recording solution until current returned to baseline for a minimum of 10 seconds until the next ligand exposure. For BAPTA-AM exposed oocytes, oocytes were incubated in 100 μM BAPTA-AM for four hours prior to electrophysiology recording. Data was analyzed using Clampex 9.2 (Axon Instruments, USA) and statistical analysis and graphs produced in Prism (GraphPad version 9.1). T-tests were used to compare responses with error bars representing standard error. For concentration-response curves, individual oocyte current response to the different ligand concentrations were normalized to the response obtained with 300 μM. Data was fit using the Graphpad “log(agonist) vs normalized response–variable slope” equation, with 95% confidence intervals being reported. […] For examples of oocyte responses, recordings were filtered in Clampfit using the lowband pass at 40 Hz cutoff.

Asu-ACR-16 = Asu-ACR-16 (Ascaris suum, UniProt F1KYJ9); test: cell-based; assay type: cell-based
Description: as §1, §2, §3, §4

Asu-ACR-16-REM = test: Voltage-clamp electrophysiology, coding-sequence modified ACR-16 in oocytes; assay type: cell-based, A. suum; conditions: B. malayi ric-3 co-injected; agonist not named in the legend (ACh by the matching native values)
Description: (§5) B. malayi acr-16 and accessory proteins ric-3, unc-50, unc-74 and molo-1 were cloned from adult female B. malayi cDNA received as a gift from Dr. T. Geary using the primers described in S1 Table. B. malayi eat-18 was prepared from two overlapping oligonucleotide primers. Other subunits were synthesized from their predicted genome sequence (Gene Universal, USA) (S2 Table). […] All sequences were cloned into the pTD2 oocyte expression vector. Asu-ACR-16 and Tzc-ACR-16 chimeras were constructed using appropriate restriction enzymes, reciprocal exchange through ligation and confirmed by sequencing (McLab, USA).
as §1
Adult female X. laevis oocyte extraction was performed in accordance with the McGill University Animal Use Protocol 2015–7758 following standard protocol. […] All electrophysiology was conducted two days post-injection, except for the expression analysis assay in which oocytes were measured every day after injection for three consecutive days. […]

[1] = target: Bma-ACR-16-asuICL chimera (Brugia malayi; Ascaris suum, UniProt A0A4E9FSR7+F1KYJ9); assay type: cell-based, B. malayi (A. suum ICL)
Description: as §5, §1, §2, §3
Oocytes were placed individually in an RC3Z chamber (Harvard Apparatus, USA) submerged in recording solution (NaCl 100 mM, KCl 2.5 mM, CaCl2 1 mM, HEPES 5 mM, pH 7.3). The RC3Z chamber was connected to a perfusion system containing recording solution and ligand solutions. Pulled glass capillaries (World Precision Instruments, USA) were filled with 3M KCl and the tips clipped and checked for appropriate resistance (between 0.5 and 5 MΩ). A 3M KCl agar bridge grounded the oocyte bath chamber. Measurements were made using an Axon Axoclamp 900A amplifier with Digidata1550M. […] Ligand solutions were applied to the oocytes with an approximate flow rate of 1.2 m/s and current responses measured. Oocytes were exposed to the ligand solution until a distinct current peak was observed followed by a wash with the recording solution until current returned to baseline for a minimum of 10 seconds until the next ligand exposure. For BAPTA-AM exposed oocytes, oocytes were incubated in 100 μM BAPTA-AM for four hours prior to electrophysiology recording. Data was analyzed using Clampex 9.2 (Axon Instruments, USA) and statistical analysis and graphs produced in Prism (GraphPad version 9.1). T-tests were used to compare responses with error bars representing standard error. For concentration-response curves, individual oocyte current response to the different ligand concentrations were normalized to the response obtained with 300 μM.

[2] = No accessory protein, listed as acetylcholine
[3] = co-injected: Bma-ric-3 (reference condition)
[4] = co-injected: Bma-ric-3 (reference condition), listed as acetylcholine
[5] = co-injected: Bma-ric-3 + Bma-eat-18
[6] = co-injected: Bma-ric-3 + Bma-molo-1
[7] = co-injected: Bma-ric-3 + Bma-unc-50 + Bma-unc-74
[8] = co-injected: Bma-ric-3 + Bma-unc-50 + Bma-unc-74 + Bma-eat-18
[9] = co-injected: Bma-ric-3 + Cel-emc-6
[10] = co-injected: Bma-ric-3 + Cel-nra-2 + Cel-nra-4
[11] = co-injected: Bma-ric-3 + Cel-nra-2 + Cel-nra-4, listed as acetylcholine
[12] = co-injected: Hco-ric-3, listed as acetylcholine

Structure (SMILES): CC(=O)OCC[N+](C)(C)C [ACh, acetylcholine]
- response to 100 μM acetylcholine normalized to Day 3 response (Gpu-ACR-16; Day 1 post-injection): 19 ± 6%
- response to 100 μM acetylcholine normalized to Day 3 response (Gpu-ACR-16; Day 2 post-injection): 76 ± 6%
- current response to 100 μM acetylcholine (Gpu-ACR-16; No accessory protein): 0 ± 0 nA
- current response to 100 μM acetylcholine (Gpu-ACR-16; [2]): 0 ± 0 (n=14) nA
- current response to 100 μM acetylcholine (Gpu-ACR-16; [3]): 1281 ± 197 nA
- current response to 100 μM acetylcholine (Gpu-ACR-16; [4]): 1281 ± 197 (n=8) nA
- current response to 100 μM acetylcholine (Gpu-ACR-16; [5]): 1264 ± 177 (n=10) ns nA
- current response to 100 μM acetylcholine (Gpu-ACR-16; [6]): 1049 ± 77 (n=16) ns nA
- current response to 100 μM acetylcholine (Gpu-ACR-16; [7]): 847 ± 124 (n=14) ns nA
- current response to 100 μM acetylcholine (Gpu-ACR-16; [8]): 1854 ± 83 nA
- current response to 100 μM acetylcholine (Gpu-ACR-16; co-injected: Bma-ric-3 + Bma-unc-50 + Bma-unc-74 + Bma-eat-18, listed as acetylcholine): 1854 ± 83 (n=14) nA
- current response to 100 μM acetylcholine (Gpu-ACR-16; [9]): 1628 ± 123 (n=17) ns nA
- current response to 100 μM acetylcholine (Gpu-ACR-16; [10]): 2553 ± 123 nA
- current response to 100 μM acetylcholine (Gpu-ACR-16; [11]): 2553 ±123 (n=12) nA
- current response to 100 μM acetylcholine (Gpu-ACR-16; co-injected: Hco-ric-3): ~ 1400 nA
- current response to 100 μM acetylcholine (Gpu-ACR-16; [12]): 1403 ± 91 nA and 1403 ± 91 (n=14) ns nA
- pEC50 (Gpu-ACR-16; read-out: EC50 ACh, concentration-response 0.3-300 μM, normalized to 300 μM, with 95% CI): 4.98
- response to 100 μM acetylcholine normalized to Day 3 response (Asu-ACR-16; Day 1 post-injection): 44 ± 5%
- response to 100 μM acetylcholine normalized to Day 3 response (Asu-ACR-16; Day 2 post-injection): 88 ± 5%
- current response to 100 μM acetylcholine (Asu-ACR-16; No accessory protein): 24 ± 10 nA
- current response to 100 μM acetylcholine (Asu-ACR-16; [2]): 24 ± 10 (n=11) nA
- current response to 100 μM acetylcholine (Asu-ACR-16; [3]): 2023 ± 68 nA
- current response to 100 μM acetylcholine (Asu-ACR-16; [4]): 2023 ± 68 (n=11) nA
- current response to 100 μM acetylcholine (Asu-ACR-16; [5]): 3152 ± 102 (n=13) nA
- current response to 100 μM acetylcholine (Asu-ACR-16; [6]): 1425 ± 55 (n=15) nA
- current response to 100 μM acetylcholine (Asu-ACR-16; [7]): 2606 ± 183 (n=10) nA
- current response to 100 μM acetylcholine (Asu-ACR-16; [8]): 2166 ± 87 (n=12) ns nA
- current response to 100 μM acetylcholine (Asu-ACR-16; [9]): 2582 ± 89 (n=12) nA
- current response to 100 μM acetylcholine (Asu-ACR-16; [10]): 2849 ± 152 (n=14) nA
- current response to 100 μM acetylcholine (Asu-ACR-16; co-injected: Hco-ric-3): 2000–2200 nA and 2052 ± 70 nA
- current response to 100 μM acetylcholine (Asu-ACR-16; [12]): 2052 ± 66 nA and 2052 ± 66 (n=13) ns nA
- current response (Asu-ACR-16-REM): 2197 ± 383 nA
- current response to 100 μM acetylcholine ([1]; No accessory protein): 0 ± 0 (n=15) nA
- current response to 100 μM acetylcholine [1, 4]: 59 ±43 nA and 59 ± 12 (n=14) nA
- current response to 100 μM acetylcholine ([1]; co-injected: Bma-ric-3 + Bma-emc-6 + Cel-nra-2 + Cel-nra-4, listed as acetylcholine): 1 ± 2 nA and 1 ± 1 (n=11) nA
- current response to 100 μM acetylcholine [1, 9]: 37 ± 12 (n=15) ns nA
- current response to 100 μM acetylcholine [1, 11]: 47 ± 18 (n=14) ns nA
- current response to 100 μM acetylcholine ([1]; co-injected: Bma-ric-3 + Cel-nra-2, listed as acetylcholine): 256 ± 89 (n=11) nA
